Measurements published in article PMC10572522, “A Designed Analog of an Antimicrobial Peptide, Crabrolin, Exhibits Enhanced Anti-Proliferative and In Vivo Antimicrobial Activity” (International Journal of Molecular Sciences, 2023).
Residues, ends and D or L forms follow the SMILES beside them.

Legend:
S. aureus (NCTC 10788) = assay: Antimicrobial susceptibility assay (MIC/MBC); assay type: cell-based, Staphylococcus aureus; conditions: for MIC: MHB, 37 °C, 20 h
Procedure: (§1) Six bacteria were tested in this experiment to detect the antimicrobial effects of crabrolin and its derivatives, including S. aureus (NCTC 10788), MRSA (NCTC 12493), E. coli (ATCC 8739), K. pneumoniae (ATCC 43816), E. faecium (NTCC-12697), and P. aeruginosa (ATCC 9027). The tested bacteria were cultured in Mueller Hinton broth medium (MHB) with norfloxacin (20 mg/L) as a positive control. All bacteria were incubated at 37 °C overnight and diluted to 5 × 10^5 CFU/mL before treating with the peptides. Stock solutions of 51,200 µM peptides were prepared in phosphate-buffered saline (PBS) and further diluted by a factor of two to 100 µM. Next, 1 µL of each peptide solution was mixed with 99 µL of bacterial subculture in a 96-well plate, and the plate was incubated at 37 °C for 20 h. After culturing, the absorbance of each well in the 96-well plate was analyzed at 550 nm using a Synergy HT plate reader (BioliseBioTek, Winooski, VT, USA). […] Starting with the MIC value, 10 µL of the solution from each well was dripped onto Mueller Hinton agar (MHA) plates. The plates were cultured at 37 °C for 20 h. After culturing, the lowest concentration with no colony growth was regarded as the MBC.

E. coli (ATCC 8739) = assay: Antimicrobial susceptibility assay (MIC/MBC); assay type: cell-based, Escherichia coli; conditions: for MIC: MHB, 37 °C, 20 h
Procedure: as §1

MRSA (NCTC 12493) = assay: Antimicrobial susceptibility assay (MIC/MBC); assay type: cell-based, methicillin-resistant Staphylococcus aureus; conditions: for MIC: MHB, 37 °C, 20 h
Procedure: as §1

[1] = test system: K. pneumoniae (ATCC 43816); assay: Antimicrobial susceptibility assay (MIC/MBC); assay type: cell-based, Klebsiella pneumoniae; conditions: for MIC: MHB, 37 °C, 20 h
Procedure: as §1

E. faecium (NTCC 12697) = assay: Antimicrobial susceptibility assay (MIC/MBC); assay type: cell-based, Enterococcus faecium; conditions: for MIC: MHB, 37 °C, 20 h
Procedure: as §1

[2] = test system: P. aeruginosa (ATCC 9027); assay: Antimicrobial susceptibility assay (MIC/MBC); assay type: cell-based, Pseudomonas aeruginosa; conditions: for MIC: MHB, 37 °C, 20 h
Procedure: as §1

[3] = test system: MRSA (NCTC 12493) biofilm; assay type: cell-based, methicillin-resistant Staphylococcus aureus; conditions: for MBIC: biofilm inhibitory rate more than 90%; for MBEC: eradication rate greater than 99.9%
Procedure: (§2) To measure the antibiofilm activity of crabrolin and its derivatives, four drug-resistant biofilm-forming strains, MRSA (NCTC 12493), K. pneumoniae (ATCC 43816), E. faecium (NTCC-12697), and P. aeruginosa (ATCC 9027), were used in this assay. Tryptic soy broth (TSB) (for the Gram-positive bacteria) and Luria–Bertani broth (LB) (for the Gram-negative bacteria) were used to culture the bacteria.
(§3) The mass of the biofilm in this assay was detected by the crystal violet staining method. First, 100 μL of 5 × 10^5 CFU/mL bacteria was incubated with 1 μL of different peptide solutions (ranging from 51200 μM to 100 μM) for 24 h at 37 °C with 200 rpm shaking. After the biofilm formation, 100 μL of PBS was used to rinse the biofilm twice. Next, 100 µL of methanol was added to fix the biofilm, and the biofilm was then dried. Thereafter, 100 μL of 0.1% crystal violet was added and left to stain for 15 min, and then the excess crystal violet was further rinsed by PBS. After the plate had air-dried, 30% glacial acetic acid was added to each well of the plate, and the plate was shaken for 15 min before the optical density (OD) value was measured at 595 nm using a Synergy HT plate reader. The MBIC value refers to the minimum concentration at which the biofilm inhibitory rate was more than 90%.
(§4) Different from measuring the MBIC value, to determine the MBEC value, 100 μL of the bacteria was first added to 96-well plates. After the biofilm was formed, the biofilm was rinsed with PBS twice to remove the planktonic cells, and then different concentrations of the drugs were added to the biofilm (the same as the MBIC assay). The mixture was incubated at 37 °C with shaking at 200 rpm. After 24 h of incubation, the mass of the biofilm was measured in the same way as the MBIC value, and the minimum concentration at which the eradication rate was greater than 99.9% was considered to be the MBEC value.

[4] = test system: K. pneumoniae (ATCC 43816) biofilm; assay type: cell-based, Klebsiella pneumoniae; conditions: for MBIC: biofilm inhibitory rate more than 90%; for MBEC: eradication rate greater than 99.9%
Procedure: as §2, §3, §4

[5] = test system: E. faecium (NTCC12697) biofilm; assay type: cell-based, Enterococcus faecium; conditions: for MBIC: biofilm inhibitory rate more than 90%; for MBEC: eradication rate greater than 99.9%
Procedure: as §2, §3, §4

[6] = test system: P. aeruginosa (ATCC 9027) biofilm; assay type: cell-based, Pseudomonas aeruginosa; conditions: for MBIC: biofilm inhibitory rate more than 90%; for MBEC: eradication rate greater than 99.9%
Procedure: as §2, §3, §4

[7] = test system: human breast cancer cell line MCF-7; assay: Anti-proliferative assay (MTT); assay type: cell-based; conditions: MCF-7, MTT, 24 h
Procedure: (§5) The human non-small-cell lung cancer line, H838, the human prostate carcinoma cell line, PC-3, the human glioblastoma astrocytoma, U251MG, the human breast cancer cell line, MCF-7, the human colorectal carcinoma cell line, HCT116, and the human keratinocyte cell line, HaCaT, were used to detect the anti-proliferative effects of the crabrolin and its derivatives in vitro. A total of 8000 cells were seeded in each well of a 96-well plate. After the cells had adhered to the wall, the cells were starved for 4 h. After the starvation, the cells were incubated with different concentrations of the drugs, ranging from 100 µM to 1 nM, for 24 h, with 0.1% Triton X-100 used as a positive control. Next, 10 µL of MTT (3-(4,5-dimethylthiazol-2-yl)-2,5-diphenyltetrazolium bromide) solution (5 mg/mL) was added to each well of the 96-well plate. After 2 h of incubation, 100 μL of DMSO-superseded medium was added to each well to dissolve the formazan crystals. Finally, the absorbance was detected using a Synergy HT plate reader at 570 nm.

[8] = test system: human colorectal carcinoma cell line HCT-116; assay: Anti-proliferative assay (MTT); assay type: cell-based; conditions: HCT-116, MTT, 24 h
Procedure: as §5

[9] = test system: human glioblastoma astrocytoma U251MG; assay: Anti-proliferative assay (MTT); assay type: cell-based; conditions: 24 h
Procedure: as §5

[10] = test system: human keratinocyte cell line HaCaT; assay: Anti-proliferative assay (MTT); assay type: cell-based; conditions: HaCaT (normal keratinocytes), 24 h
Procedure: as §5

[11] = test system: human non-small-cell lung cancer line H838; assay: Anti-proliferative assay (MTT); assay type: cell-based; conditions: 24 h
Procedure: as §5

[12] = test system: human prostate carcinoma cell line PC-3; assay: Anti-proliferative assay (MTT); assay type: cell-based; conditions: PC3, MTT, 24 h
Procedure: as §5

Hemolysis assay = assay type: cell-based, horse; conditions: horse, erythrocytes (2% suspension); at the peptide's maximum MIC; relative to Triton X-100; read-out: Hemolysis under the Maximum MIC
Procedure: (§6) According to the procedures described in detail in a previous study, the debris and impurities of the erythrocytes were washed with PBS in advance to yield 2% of the erythrocyte suspension, and the drug concentration was diluted from 1024 µM to 2 µM with PBS [53]. The same amounts of the drug and the erythrocyte suspension were mixed and cultured at 37 °C for 2 h; 0.1% Triton X-100 (Sigma-Aldrich, St. Louis, MO, USA) was prepared as a positive control, and PBS was prepared as a negative control. After the incubation, the supernatant was transferred to a 96-well plate and then detected using a Synergy HT plate reader at 570 nm.

horse erythrocytes = assay: Hemolysis assay; assay type: cell-based; conditions: for HC10 (10% hemolytic concentration) / HC50 (50% hemolytic concentration): erythrocytes, 37 °C, 2 h
Procedure: as §6

SMILES | MBC (S. aureus (NCTC 10788)) | MIC (S. aureus (NCTC 10788)) | MBC (E. coli (ATCC 8739)) | MIC (E. coli (ATCC 8739)) | MBC (MRSA (NCTC 12493)) | MIC (MRSA (NCTC 12493)) | MBC [1] | MIC [1] | MBC (E. faecium (NTCC 12697)) | MIC (E. faecium (NTCC 12697)) | MBC [2] | MIC [2] | MBIC [3] | MBEC [3] | MBIC [4] | MBEC [4] | MBIC [5] | MBEC [5] | MBIC [6] | MBEC [6] | other results
CC[C@H](C)[C@H](NC(=O)[C@H](CCCCN)NC(=O)[C@@H]1CCCN1C(=O)[C@H](CC(C)C)NC(=O)[C@@H](N)Cc1ccccc1)C(=O)N[C@@H](CC(C)C)C(=O)N[C@@H](CCCNC(=N)N)C(=O)N[C@@H](CCCCN)C(=O)N[C@H](C(=O)N[C@H](C(=O)N[C@H](C(=O)N[C@@H](C)C(=O)N[C@@H](CC(C)C)C(N)=O)[C@@H](C)O)C(C)C)[C@@H](C)CC [Crabrolin-4K, FLPKILRKIVTAL-NH2] (H-FLPKILRKIVTAL-NH2) | 4 µM | 2 µM | 8 µM | 4 µM | 16 µM | 8 µM | 32 µM | 16 µM | 64 µM | 32 µM | 32 µM | 16 µM | 16 µM | 128 µM | 16 µM | 256 µM | 16 µM | > 512 µM | 512/512 µM | 512/512 µM | IC50 [7]: 23.2 µM; IC50 [8]: 42.9 µM; IC50 [9]: 23.5 µM; IC50 [10]: 32.6 µM; IC50 [11]: 22.6 µM; IC50 [12]: 20.6 µM; hemolysis at 2 h (Hemolysis assay): 10.4%; HC10 (10% hemolytic concentration) (horse erythrocytes): 68.628 µM; HC50 (50% hemolytic concentration) (horse erythrocytes): 217.816 µM
CC[C@H](C)[C@H](NC(=O)[C@H](CCCNC(=N)N)NC(=O)[C@@H]1CCCN1C(=O)[C@H](CC(C)C)NC(=O)[C@@H](N)Cc1ccccc1)C(=O)N[C@@H](CC(C)C)C(=O)N[C@@H](CCCNC(=N)N)C(=O)N[C@@H](CCCCN)C(=O)N[C@H](C(=O)N[C@H](C(=O)N[C@H](C(=O)N[C@@H](C)C(=O)N[C@@H](CC(C)C)C(N)=O)[C@@H](C)O)C(C)C)[C@@H](C)CC [Crabrolin-4R, FLPRILRKIVTAL-NH2] (H-FLPRILRKIVTAL-NH2) | 4 µM | 2 µM | 4 µM | 4 µM | 8 µM | 4 µM | 8 µM | 8 µM | 32 µM | 16 µM | 16 µM | 16 µM | 8 µM | 64 µM | 16 µM | 128 µM | 16 µM | > 512 µM | 128 µM | 256 µM | IC50 [7]: 20.3 µM; IC50 [8]: 47 µM; IC50 [9]: 25.1 µM; IC50 [10]: 35.8 µM; IC50 [11]: 11.4 µM; IC50 [12]: 18 µM; hemolysis at 2 h (Hemolysis assay): 6.18%; HC10 (10% hemolytic concentration) (horse erythrocytes): 62.117 µM; HC50 (50% hemolytic concentration) (horse erythrocytes): 216.266 µM
CC[C@H](C)[C@H](NC(=O)[C@H](CC(C)C)NC(=O)[C@@H]1CCCN1C(=O)[C@H](CC(C)C)NC(=O)[C@@H](N)Cc1ccccc1)C(=O)N[C@@H](CC(C)C)C(=O)N[C@@H](CCCNC(=N)N)C(=O)N[C@@H](CCCCN)C(=O)N[C@@H](CCCNC(=N)N)C(=O)N[C@H](C(=O)N[C@H](C(=O)N[C@@H](C)C(=O)N[C@@H](CC(C)C)C(N)=O)[C@@H](C)O)C(C)C [Crabrolin-9R, FLPLILRKRVTAL-NH2] (H-FLPLILRKRVTAL-NH2) | > 512 µM | 256 µM | > 512 µM | 256 µM | > 512 µM | > 512 µM | > 512 µM | > 512 µM | > 512 µM | > 512 µM | > 512 µM | > 512 µM | >512/>512 µM | >512/>512 µM | >512/>512 µM | >512/>512 µM | >512/>512 µM | >512/>512 µM | >512/>512 µM | >512/>512 µM | IC50 [7]: 6340 µM; IC50 [8]: 1880 µM; IC50 [9]: 1140 µM; IC50 [10]: 5850 µM; IC50 [11]: 2740 µM; IC50 [12]: 354 µM; Hemolytic activity (in words) (horse erythrocytes; 1 to 512 μM): lost its hemolytic activity
CC[C@H](C)[C@H](NC(=O)[C@H](CCCNC(=N)N)NC(=O)[C@@H]1CCCN1C(=O)[C@H](CC(C)C)NC(=O)[C@@H](N)CCCNC(=N)N)C(=O)N[C@@H](CC(C)C)C(=O)N[C@@H](CCCNC(=N)N)C(=O)N[C@@H](CCCCN)C(=O)N[C@H](C(=O)N[C@H](C(=O)N[C@@H](CCCNC(=N)N)C(=O)N[C@@H](CCCNC(=N)N)C(=O)N[C@@H](CC(C)C)C(N)=O)C(C)C)[C@@H](C)CC [Crabrolin-AR, RLPRILRKIVRRL-NH2] (H-RLPRILRKIVRRL-NH2) | 8 µM | 4 µM | 4 µM | 2 µM | 8 µM | 4 µM | 16 µM | 8 µM | 32 µM | 16 µM | 16 µM | 4 µM | 8 µM | 512 µM | 8 µM | > 512 µM | 64 µM | > 512 µM | 16 µM | > 512 µM | IC50 [7]: 32.5 µM; IC50 [8]: 29.9 µM; IC50 [9]: 52 µM; IC50 [10]: 34.9 µM; IC50 [11]: 41.3 µM; IC50 [12]: 28.8 µM; hemolysis at 2 h (Hemolysis assay): 6.63%; HC10 (10% hemolytic concentration) (horse erythrocytes): 59.049 µM
